According to patent US20180110795A1, “COMPOSITIONS AND METHODS FOR DETECTING AND TREATING PERIODONTAL DISEASE” (THE FORSYTH INSTITUTE, priority 2015, published 2018):

What was measured:
Assay type in all cases: cell-based
Rothia dentocariosa = assay: Active fraction of microbes by rRNA analysis in liquid culture of oral plaque; conditions: TPP at concentrations as low as 25 mM
Source text: (§1) Oral plaque containing Streptococcus sanguinis was obtained from a human subject and cultured in liquid culture in the presence or absence of TPP. S. sanguinis is a gram positive bacteria that binds to the surface if the teeth, where it acts as a tether for the attachment of other bacteria that form dental plaque, and contributes to the development of caries and periodontal disease. S. Sangunis has all of the genes required for anaerobic cobalamin biosynthesis.
(§2) Microbes exist in a range of metabolic states (e.g., dormant, active and growing) and analysis of ribosomal RNA (rRNA) is frequently employed to identify the ‘active’ fraction of microbes in samples. […] This is of particular interest given that other bacterial species may utilize and or depend on the cobalamin synthesized by S. Sanguinis, thus making this species a keystone esential to maintain a mature biofilm.

Solobacterium moorei = assay: as above; conditions: TPP at concentrations as low as 25 mM
Source text: as §1, §2

Streptococcus sanguinis = assay: as above; conditions: three hours of incubation
Source text: as §1, §2

S. intermedius = assay: as above; conditions: TPP at concentrations as low as 25 mM
Source text: as §1, §2

S. Genus probe 1 = assay: as above; conditions: TPP at concentrations as low as 25 mM
Source text: as §1, §2

oral plaque = assay: Plaque bacteria plated on blood agar and cultured with or without TPP; conditions: plaque bacteria from four human subjects on blood agar, various concentrations of TPP
Protocol: Dental plaque is a biofilm that builds up on teeth and contains bacteria associated with cavities, gingivitis, and periodontitis. Plaque samples were obtained from four human subjects. Plaque bacteria from each subject was plated on blood agar and cultured in the presence or absence of various concentrations of Sodium tripolyphospate (TPP), which inhibits Cob(I)alamin adenosyltransferase.

oral microbial community = assay: Principal component analysis of active community composition by 16S rRNA genes from cultures of plaque; conditions: cultures of plaque from a human subject, samples at 0, 3, 9 and 18 hours, all concentrations
Protocol: Principal component analysis was used to analyze changes in oral microbial community composition. Results of an analysis of the active community composition isolated from a human subject was carried out by analysis of 16S rRNA genes from cultures of plaque. The panel of species identified included 500 different species. Samples from the culture were taken at 0, 3, 9 and 18 hours.

O=P(O)(O)OP(=O)(O)OP(=O)(O)O [TPP, sodium tripolyphosphate]
activity of Rothia dentocariosa (Rothia dentocariosa): significantly reduced
activity of Solobacterium moorei (Solobacterium moorei): significantly reduced
fraction of active S. Sanguinis vs control with no TPP (Streptococcus sanguinis; 25 mM TPP): significantly lower
fraction of active S. Sanguinis vs control with no TPP (Streptococcus sanguinis; 50 mM TPP): significantly lower
activity of S. intermedius (S. intermedius): significantly reduced
activity of S. Genus probe 1 (S. Genus probe 1): significantly reduced
oral plaque growth (oral plaque): completely inhibited oral plaque growth in a dose dependent manner
change in composition of bacterial communities (oral microbial community): affected all of the bacterial communities in similar ways at all concentrations
